Test results published in the NIST ThermoML archive (doi:10.1007/s10765-013-1526-8).
± gives the expanded uncertainty stated by the source.

Legend:
[1] = refractive index (Na D-line) (dimensionless); xn = mol fraction of the nth substance listed; conditions: 101 kPa, Liquid
[2] = xn = mol fraction of the nth substance listed; conditions: 101 kPa, Liquid; for speed of sound: Sing-around technique in a fixed-path interferometer

CCCCC(CC)CO (stereo not given) [2-ethyl-1-hexanol] + Clc1ccccc1
Conditions	mass density, [2] [kg/m3]	refractive index, [1]	speed of sound, [2] [m/s]	viscosity, [2] [mPa·s]
298.15 K, x2 = 0	829.07 ± 1.6	1.4287 ± 0.0019	1319 ± 10	8.418 ± 0.65
298.15 K, x2 = 0.0779	838.66 ± 1.5	1.435 ± 0.0019	1313 ± 10	6.736 ± 0.54
298.15 K, x2 = 0.1381	847.37 ± 1.5	1.44 ± 0.0019	1308 ± 10	5.641 ± 0.47
298.15 K, x2 = 0.1974	857.02 ± 1.4	1.4453 ± 0.0019	1304 ± 10	4.684 ± 0.41
298.15 K, x2 = 0.2716	870.89 ± 1.3	1.4523 ± 0.0019	1298 ± 10	3.718 ± 0.33
298.15 K, x2 = 0.3399	885.34 ± 1.2	1.4591 ± 0.0019	1292 ± 10	2.996 ± 0.27
298.15 K, x2 = 0.4119	902.38 ± 1.1	1.4666 ± 0.0019	1287 ± 10	2.38 ± 0.22
298.15 K, x2 = 0.4766	919.17 ± 1	1.4734 ± 0.0019	1282 ± 10	1.969 ± 0.18
298.15 K, x2 = 0.5461	938.46 ± 0.92	1.4807 ± 0.0019	1277 ± 10	1.628 ± 0.15
298.15 K, x2 = 0.6124	958.72 ± 0.79	1.4879 ± 0.0019	1272 ± 10	1.381 ± 0.13
298.15 K, x2 = 0.6892	983.65 ± 0.63	1.4961 ± 0.0019	1268 ± 10	1.197 ± 0.12
298.15 K, x2 = 0.758	1007.82 ± 0.58	1.5034 ± 0.0019	1265 ± 10	1.06 ± 0.1
298.15 K, x2 = 0.8189	1029.88 ± 0.71	1.5095 ± 0.0019	1264 ± 10	0.969 ± 0.096
298.15 K, x2 = 0.8888	1056.63 ± 0.88	1.5161 ± 0.0019	1263 ± 10	0.893 ± 0.09
298.15 K, x2 = 0.9533	1081.91 ± 1	1.521 ± 0.0019	1265 ± 10	0.821 ± 0.083
303.15 K, x2 = 0	825.39 ± 1.6	1.4266 ± 0.0019	1301 ± 10	7.144 ± 0.57
303.15 K, x2 = 0.0779	834.41 ± 1.6	1.4332 ± 0.0019	1295 ± 10	5.817 ± 0.49
303.15 K, x2 = 0.1381	842.5 ± 1.5	1.4382 ± 0.0019	1291 ± 10	4.906 ± 0.43
303.15 K, x2 = 0.1974	852.03 ± 1.4	1.4437 ± 0.0019	1286 ± 10	4.121 ± 0.36
303.15 K, x2 = 0.2716	865.78 ± 1.4	1.4509 ± 0.0019	1280 ± 10	3.268 ± 0.29
303.15 K, x2 = 0.3399	880.07 ± 1.3	1.4577 ± 0.0019	1275 ± 10	2.671 ± 0.24
303.15 K, x2 = 0.4119	897.12 ± 1.2	1.4651 ± 0.0019	1269 ± 10	2.147 ± 0.2
303.15 K, x2 = 0.4766	914.02 ± 1.1	1.472 ± 0.0019	1264 ± 10	1.785 ± 0.17
303.15 K, x2 = 0.5461	933.51 ± 0.95	1.4793 ± 0.0019	1259 ± 10	1.455 ± 0.14
303.15 K, x2 = 0.6124	953.51 ± 0.82	1.4863 ± 0.0019	1254 ± 10	1.253 ± 0.12
303.15 K, x2 = 0.6892	978.28 ± 0.67	1.4943 ± 0.0019	1250 ± 10	1.057 ± 0.1
303.15 K, x2 = 0.758	1002.29 ± 0.54	1.5015 ± 0.0019	1247 ± 10	0.968 ± 0.096
303.15 K, x2 = 0.8189	1024.42 ± 0.68	1.5076 ± 0.0019	1246 ± 10	0.881 ± 0.089
303.15 K, x2 = 0.8888	1050.99 ± 0.84	1.514 ± 0.0019	1245 ± 10	0.81 ± 0.082
303.15 K, x2 = 0.9533	1076.27 ± 1	1.5186 ± 0.0019	1247 ± 10	0.764 ± 0.078
308.15 K, x2 = 0	821.68 ± 1.6	1.4245 ± 0.0019	1283 ± 10	6.09 ± 0.5
308.15 K, x2 = 0.0779	829.62 ± 1.6	1.4308 ± 0.0019	1277 ± 10	4.854 ± 0.42
308.15 K, x2 = 0.1381	837.63 ± 1.5	1.4362 ± 0.0019	1273 ± 10	4.032 ± 0.36
308.15 K, x2 = 0.1974	846.84 ± 1.5	1.4416 ± 0.0019	1268 ± 10	3.363 ± 0.3
308.15 K, x2 = 0.2716	860.76 ± 1.4	1.4491 ± 0.0019	1263 ± 10	2.689 ± 0.24
308.15 K, x2 = 0.3399	875.1 ± 1.3	1.4561 ± 0.0019	1257 ± 10	2.171 ± 0.2
308.15 K, x2 = 0.4119	892.15 ± 1.2	1.4637 ± 0.0019	1252 ± 10	1.749 ± 0.16
308.15 K, x2 = 0.4766	908.93 ± 1.1	1.4706 ± 0.0019	1247 ± 10	1.45 ± 0.14
308.15 K, x2 = 0.5461	928.26 ± 0.98	1.4778 ± 0.0019	1242 ± 10	1.221 ± 0.12
308.15 K, x2 = 0.6124	948.46 ± 0.85	1.4849 ± 0.0019	1237 ± 10	1.068 ± 0.11
308.15 K, x2 = 0.6892	973.49 ± 0.69	1.4929 ± 0.0019	1233 ± 10	0.96 ± 0.095
308.15 K, x2 = 0.758	996.87 ± 0.55	1.4998 ± 0.0019	1230 ± 10	0.879 ± 0.088
308.15 K, x2 = 0.8189	1018.95 ± 0.64	1.5056 ± 0.0019	1228 ± 10	0.824 ± 0.084
308.15 K, x2 = 0.8888	1045.23 ± 0.8	1.5116 ± 0.0019	1228 ± 10	0.774 ± 0.079
308.15 K, x2 = 0.9533	1070.96 ± 0.96	1.5161 ± 0.002	1229 ± 10	0.719 ± 0.075
